Assay results taken from PubChem BioAssay AID328 (DTP/NCI, 2004).
Where “and” joins values, the source holds several entries; their conditions need not be identical. Equal entries are not always repeated. Toxic doses and inconclusive results are not listed. The calls were made as follows: active = survival T/C of 150% or more; inactive = T/C below 125% in these data.

Test system: BDF1 mice, P388 leukemia ip, median survival T/C
Test: NCI In Vivo Anticancer Drug Screen. Data for tumor model P388 Leukemia (intraperitoneal) in B6D2F1 (BDF1) mice
Settings: endpoint: median survival time, higher = longer survival
Method in brief: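 Reported as T/C, where T is the survival measurement in dosed animals and C the same measurement in vehicle controls.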

[1] = dose: 50.0 mg/kg/injection, schedule: Q01DX009 (ip), vehicle: saline with Tween-80
[2] = dose: 100.0 mg/kg/injection, schedule: Q01DX009 (ip), vehicle: saline with Tween-80
[3] = dose: 200.0 mg/kg/injection, schedule: Q01DX009 (ip), vehicle: saline with Tween-80
[4] = dose: 25.0 mg/kg/injection, schedule: Q01DX009 (ip), vehicle: saline with Tween-80
[5] = dose: 100.0 mg/kg/injection, schedule: Q01DX009 (ip), vehicle: other
[6] = dose: 200.0 mg/kg/injection, schedule: Q01DX009 (ip), vehicle: other

Measured: T/C

COC(=O)C12OCC34C(CC5=C(C)C(=O)C(O)=CC5(C)C3C(O)C1O)OC(=O)C(OC(=O)/C=C(\C)C(C)C)C24 (stereo not given)
inactive: dose: 31.0 micrograms/kg/injection, schedule: Q01DX009 (ip), vehicle: saline + alcohol 120 % of control | dose: 62.0 micrograms/kg/injection, schedule: Q01DX009 (ip), vehicle: saline + alcohol 115 % of control | dose: 250.0 micrograms/kg/injection, schedule: Q01DX009 (ip), vehicle: saline + alcohol 100 % of control | dose: 500.0 micrograms/kg/injection, schedule: Q01DX009 (ip), vehicle: saline + alcohol 105 % of control | dose: 1000.0 micrograms/kg/injection, schedule: Q01DX009 (ip), vehicle: saline + alcohol 120 % of control | dose: 2000.0 micrograms/kg/injection, schedule: Q01DX009 (ip), vehicle: saline + alcohol 110 % of control

CCCCOP1(=O)N(C)CCN1C
inactive: dose: 50.0 mg/kg/injection, schedule: Q01DX009 (ip), vehicle: saline 102 % of control | dose: 100.0 mg/kg/injection, schedule: Q01DX009 (ip), vehicle: saline 105 % of control | dose: 200.0 mg/kg/injection, schedule: Q01DX009 (ip), vehicle: saline 102 % of control

COc1cc(-c2ccc(N=Nc3c(O)c(C(=O)Nc4ccccc4OC)cc4ccccc34)c(OC)c2)ccc1N=Nc1c(O)c(C(=O)Nc2ccccc2OC)cc2ccccc12
inactive: dose: 100.0 mg/kg/injection, schedule: Q01DX005 (ip), vehicle: saline with Tween-80 97 % of control | dose: 200.0 mg/kg/injection, schedule: Q01DX005 (ip), vehicle: saline with Tween-80 92 % of control

Cc1ccccc1CC(N)C(=O)O (stereo not given)
inactive: [1] 92 % of control | [2] 92 % of control | [3] 90 % of control

Nc1ccccc1N
inactive: [4] 92 % of control and 100 % of control | [1] 100 % of control | [3] 97 % of control

CCCCCCC(=O)/C=C/c1cccc(Cl)c1
inactive: dose: 100.0 mg/kg/injection, schedule: Q04DX003 (ip), vehicle: saline 88 % of control | dose: 400.0 mg/kg/injection, schedule: Q04DX003 (ip), vehicle: saline 100 % of control

COc1cc2ccc(CCN)cc2cc1OC
inactive: dose: 12.5 mg/kg/injection, schedule: Q01DX009 (ip), vehicle: saline with Tween-80 95 % of control | [4] 108 % of control | [1] 87 % of control

COc1ccc2c(c1)C(=O)CC=C(C(=O)O)N2
inactive: [2] 112 % of control | dose: 100.0 mg/kg/injection, schedule: Q04DX003 (ip), vehicle: saline with Tween-80 100 % of control | [3] 112 % of control | dose: 200.0 mg/kg/injection, schedule: Q04DX003 (ip), vehicle: saline with Tween-80 115 % of control | dose: 400.0 mg/kg/injection, schedule: Q01DX009 (ip), vehicle: saline with Tween-80 116 % of control | dose: 400.0 mg/kg/injection, schedule: Q04DX003 (ip), vehicle: saline with Tween-80 115 % of control

CC1=CC(C)(C)Nc2ccc(CSc3ccccc3)cc21
inactive: dose: 50.0 mg/kg/injection, schedule: Q01DX009 (ip), vehicle: saline + alcohol 102 % of control | dose: 100.0 mg/kg/injection, schedule: Q01DX009 (ip), vehicle: saline + alcohol 120 % of control | dose: 200.0 mg/kg/injection, schedule: Q01DX009 (ip), vehicle: saline + alcohol 120 % of control

COc1ccc(Nc2nc(N)nc(CNc3ccc(Cl)cc3)n2)cc1
inactive: dose: 100.0 mg/kg/injection, schedule: Q04DX003 (ip), vehicle: saline sonified 100 % of control | dose: 200.0 mg/kg/injection, schedule: Q04DX003 (ip), vehicle: saline sonified 100 % of control | dose: 400.0 mg/kg/injection, schedule: Q04DX003 (ip), vehicle: saline sonified 110 % of control

COc1cccc(C(=O)CC(O)(C(F)(F)F)C(F)(F)F)c1
inactive: [5] 91 % of control | dose: 100.0 mg/kg/injection, schedule: Q04DX003 (ip), vehicle: other 100 % of control | [6] 95 % of control | dose: 200.0 mg/kg/injection, schedule: Q04DX003 (ip), vehicle: other 100 % of control | dose: 400.0 mg/kg/injection, schedule: Q01DX009 (ip), vehicle: other 104 % of control | dose: 400.0 mg/kg/injection, schedule: Q04DX003 (ip), vehicle: other 100 % of control

OCC(Br)(Br)Br
inactive: [5] 95 % of control | [6] 95 % of control

COC(=O)Nc1nc2ccc(C(=O)c3ccccc3)cc2[nH]1
inactive: dose: 10.0 mg/kg/injection, schedule: Q04DX003 (ip), vehicle: other 106 % of control
active: dose: 30.0 mg/kg/injection, schedule: Q04DX003 (ip), vehicle: saline with Tween-80 173 % of control | dose: 35.0 mg/kg/injection, schedule: Q04DX003 (ip), vehicle: saline with Tween-80 178 % of control
